From paper PMC6704710, “Preclinical evaluation of 3D185, a novel potent inhibitor of FGFR1/2/3 and CSF-1R, in FGFR-dependent and macrophage-dominant cancer models” (Journal of Experimental & Clinical Cancer Research : CR, 2019)

Legend:
Test in all cases: Eurofins kinase panel
Format in all cases: biochemical
Details in all cases: read-out: Inhibition rate (%)
CK2α2(h) = target: T1, CK2α2(h) (Homo sapiens, UniProt P19784)
T1 construct: purchased Eurofins (KinaseProfiler)

A-Raf(h) = target: T2, A-Raf(h) (Homo sapiens, UniProt P10398)
T2 construct: purchased Eurofins (KinaseProfiler)
T2 sequence (P10398 1-606): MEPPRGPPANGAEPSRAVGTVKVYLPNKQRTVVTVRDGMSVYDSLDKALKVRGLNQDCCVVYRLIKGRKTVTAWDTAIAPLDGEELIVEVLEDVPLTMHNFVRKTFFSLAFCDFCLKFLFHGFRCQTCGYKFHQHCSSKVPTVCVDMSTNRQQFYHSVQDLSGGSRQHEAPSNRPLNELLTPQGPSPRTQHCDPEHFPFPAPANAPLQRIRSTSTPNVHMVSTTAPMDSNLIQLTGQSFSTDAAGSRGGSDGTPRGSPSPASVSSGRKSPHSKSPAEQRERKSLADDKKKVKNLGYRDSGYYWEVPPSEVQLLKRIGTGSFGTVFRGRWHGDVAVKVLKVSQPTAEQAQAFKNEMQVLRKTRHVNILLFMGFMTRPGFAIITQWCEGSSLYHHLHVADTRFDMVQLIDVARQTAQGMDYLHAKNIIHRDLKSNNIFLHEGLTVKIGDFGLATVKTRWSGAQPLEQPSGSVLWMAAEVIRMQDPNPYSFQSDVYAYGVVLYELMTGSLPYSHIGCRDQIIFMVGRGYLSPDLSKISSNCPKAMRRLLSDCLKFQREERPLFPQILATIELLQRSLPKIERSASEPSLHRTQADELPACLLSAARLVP

Rsk1(h) = target: T3, Rsk1(h) (Homo sapiens, UniProt Q15418)
T3 construct: purchased Eurofins (KinaseProfiler)

CaMKIγ(h) = target: T4, CaMKIγ(h) (Homo sapiens, UniProt Q96NX5)
T4 construct: purchased Eurofins (KinaseProfiler)

Rsk1(r) = target: T5, Rsk1(r) (Rattus norvegicus, UniProt Q63531)
T5 construct: purchased Eurofins (KinaseProfiler)

CDK2/cyclinA(h) = target: T6, CDK2/cyclinA(h) (Homo sapiens, UniProt P24941)
T6 construct: purchased Eurofins (KinaseProfiler)

PKAcβ(h) = target: T7, PKAcβ(h) (Homo sapiens, UniProt P22694)
T7 construct: purchased Eurofins (KinaseProfiler)

B-Raf(h) = target: T8, B-Raf(h) (Homo sapiens, UniProt P15056)
T8 construct: purchased Eurofins (KinaseProfiler)

RIPK1(h) = target: T9, RIPK1(h) (Homo sapiens, UniProt Q13546)
T9 construct: purchased Eurofins (KinaseProfiler)
T9 sequence (Q13546 1-671): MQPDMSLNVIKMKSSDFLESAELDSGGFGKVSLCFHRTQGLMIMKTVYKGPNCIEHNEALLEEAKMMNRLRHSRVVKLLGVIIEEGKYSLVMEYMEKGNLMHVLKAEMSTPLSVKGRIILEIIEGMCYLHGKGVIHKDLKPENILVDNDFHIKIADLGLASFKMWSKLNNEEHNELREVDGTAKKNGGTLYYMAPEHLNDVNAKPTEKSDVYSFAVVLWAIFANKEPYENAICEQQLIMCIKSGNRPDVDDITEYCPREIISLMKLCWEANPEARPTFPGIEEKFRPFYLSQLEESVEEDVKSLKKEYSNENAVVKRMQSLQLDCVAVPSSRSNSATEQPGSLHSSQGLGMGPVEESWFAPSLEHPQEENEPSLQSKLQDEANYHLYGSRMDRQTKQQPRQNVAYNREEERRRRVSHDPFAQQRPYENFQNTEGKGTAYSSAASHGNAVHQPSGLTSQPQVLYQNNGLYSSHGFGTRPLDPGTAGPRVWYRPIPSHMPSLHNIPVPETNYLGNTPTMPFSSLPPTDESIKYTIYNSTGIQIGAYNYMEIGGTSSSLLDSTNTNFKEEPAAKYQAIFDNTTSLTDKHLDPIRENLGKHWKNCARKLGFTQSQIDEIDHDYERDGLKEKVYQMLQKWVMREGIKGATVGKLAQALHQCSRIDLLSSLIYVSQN

MSK2(h) = target: T10, MSK2(h) (Homo sapiens, UniProt O75676)
T10 construct: purchased Eurofins (KinaseProfiler)

PKCδ(h) = target: T11, PKCδ(h) (Homo sapiens, UniProt Q05655)
T11 construct: purchased Eurofins (KinaseProfiler)

Wee1(h) = target: T12, Wee1(h) (Homo sapiens, UniProt P30291)
T12 construct: purchased Eurofins (KinaseProfiler)

PKBγ(h) = target: T13, PKBγ(h) (Homo sapiens, UniProt Q9Y243)
T13 construct: purchased Eurofins (KinaseProfiler)

GCN2(h) = target: T14, GCN2(h) (Homo sapiens, UniProt Q9P2K8)
T14 construct: purchased Eurofins (KinaseProfiler)
T14 sequence (Q9P2K8 whole entry): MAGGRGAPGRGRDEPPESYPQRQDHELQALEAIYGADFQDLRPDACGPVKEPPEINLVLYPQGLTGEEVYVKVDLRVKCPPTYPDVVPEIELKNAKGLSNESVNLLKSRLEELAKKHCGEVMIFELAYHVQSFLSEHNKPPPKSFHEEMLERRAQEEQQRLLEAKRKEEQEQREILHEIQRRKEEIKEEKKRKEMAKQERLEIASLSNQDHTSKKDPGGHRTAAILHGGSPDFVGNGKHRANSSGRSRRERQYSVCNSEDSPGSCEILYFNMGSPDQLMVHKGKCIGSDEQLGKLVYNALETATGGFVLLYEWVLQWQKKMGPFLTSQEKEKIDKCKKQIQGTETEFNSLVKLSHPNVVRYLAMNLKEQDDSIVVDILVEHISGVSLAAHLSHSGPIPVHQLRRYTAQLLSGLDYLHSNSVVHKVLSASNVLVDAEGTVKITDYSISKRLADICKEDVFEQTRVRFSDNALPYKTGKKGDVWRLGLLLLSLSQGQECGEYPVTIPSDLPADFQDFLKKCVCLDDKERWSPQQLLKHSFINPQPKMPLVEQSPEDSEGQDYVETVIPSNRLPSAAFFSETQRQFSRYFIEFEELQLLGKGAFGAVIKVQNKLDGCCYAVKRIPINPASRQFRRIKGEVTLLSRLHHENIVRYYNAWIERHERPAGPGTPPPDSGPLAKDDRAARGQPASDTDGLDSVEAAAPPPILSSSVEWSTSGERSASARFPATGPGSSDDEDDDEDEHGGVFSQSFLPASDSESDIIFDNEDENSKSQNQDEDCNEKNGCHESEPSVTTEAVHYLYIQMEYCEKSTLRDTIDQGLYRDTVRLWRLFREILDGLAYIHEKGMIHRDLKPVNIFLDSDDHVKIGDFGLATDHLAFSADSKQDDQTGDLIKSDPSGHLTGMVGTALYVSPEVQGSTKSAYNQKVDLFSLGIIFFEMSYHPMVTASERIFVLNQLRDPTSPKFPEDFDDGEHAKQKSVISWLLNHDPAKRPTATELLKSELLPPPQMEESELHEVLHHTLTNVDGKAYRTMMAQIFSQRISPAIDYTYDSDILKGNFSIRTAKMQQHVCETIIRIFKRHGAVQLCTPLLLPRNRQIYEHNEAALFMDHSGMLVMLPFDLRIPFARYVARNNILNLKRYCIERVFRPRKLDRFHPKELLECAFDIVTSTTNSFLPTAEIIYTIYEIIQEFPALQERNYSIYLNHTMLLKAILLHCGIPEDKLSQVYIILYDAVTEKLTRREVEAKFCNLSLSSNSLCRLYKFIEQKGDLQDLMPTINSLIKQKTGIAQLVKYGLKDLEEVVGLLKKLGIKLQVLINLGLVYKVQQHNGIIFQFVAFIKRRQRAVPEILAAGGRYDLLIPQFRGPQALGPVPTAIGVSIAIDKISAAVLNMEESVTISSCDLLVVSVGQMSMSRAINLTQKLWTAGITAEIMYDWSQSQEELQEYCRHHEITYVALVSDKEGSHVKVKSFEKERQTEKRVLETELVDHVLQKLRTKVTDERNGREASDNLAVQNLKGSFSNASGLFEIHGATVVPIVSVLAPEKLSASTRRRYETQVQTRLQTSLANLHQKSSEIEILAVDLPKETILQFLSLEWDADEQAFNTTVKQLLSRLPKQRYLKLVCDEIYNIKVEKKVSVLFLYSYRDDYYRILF

T1 sequence (P19784 whole entry): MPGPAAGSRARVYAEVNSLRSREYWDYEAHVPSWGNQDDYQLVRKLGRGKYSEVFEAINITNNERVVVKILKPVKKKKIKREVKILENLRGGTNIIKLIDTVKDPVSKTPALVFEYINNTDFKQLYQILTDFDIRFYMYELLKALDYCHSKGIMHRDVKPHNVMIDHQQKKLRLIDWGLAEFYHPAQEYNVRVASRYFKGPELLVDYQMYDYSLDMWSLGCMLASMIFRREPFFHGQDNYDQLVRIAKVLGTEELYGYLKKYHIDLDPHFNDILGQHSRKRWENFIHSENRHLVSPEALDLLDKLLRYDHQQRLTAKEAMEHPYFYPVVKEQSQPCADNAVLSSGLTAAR
T13 sequence (Q9Y243 whole entry): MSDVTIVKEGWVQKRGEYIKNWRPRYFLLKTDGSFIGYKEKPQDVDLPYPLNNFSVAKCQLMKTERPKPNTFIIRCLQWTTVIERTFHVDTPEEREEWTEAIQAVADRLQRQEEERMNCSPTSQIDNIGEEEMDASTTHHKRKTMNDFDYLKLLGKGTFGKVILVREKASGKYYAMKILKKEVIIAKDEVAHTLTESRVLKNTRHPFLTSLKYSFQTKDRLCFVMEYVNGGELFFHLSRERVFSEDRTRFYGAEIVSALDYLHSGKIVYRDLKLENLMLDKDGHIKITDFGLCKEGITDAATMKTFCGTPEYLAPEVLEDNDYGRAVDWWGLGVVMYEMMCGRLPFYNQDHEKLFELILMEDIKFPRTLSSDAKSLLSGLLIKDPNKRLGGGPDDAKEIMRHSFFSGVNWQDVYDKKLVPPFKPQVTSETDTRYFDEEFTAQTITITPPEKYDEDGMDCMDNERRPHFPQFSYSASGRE
T3 sequence (Q15418 whole entry): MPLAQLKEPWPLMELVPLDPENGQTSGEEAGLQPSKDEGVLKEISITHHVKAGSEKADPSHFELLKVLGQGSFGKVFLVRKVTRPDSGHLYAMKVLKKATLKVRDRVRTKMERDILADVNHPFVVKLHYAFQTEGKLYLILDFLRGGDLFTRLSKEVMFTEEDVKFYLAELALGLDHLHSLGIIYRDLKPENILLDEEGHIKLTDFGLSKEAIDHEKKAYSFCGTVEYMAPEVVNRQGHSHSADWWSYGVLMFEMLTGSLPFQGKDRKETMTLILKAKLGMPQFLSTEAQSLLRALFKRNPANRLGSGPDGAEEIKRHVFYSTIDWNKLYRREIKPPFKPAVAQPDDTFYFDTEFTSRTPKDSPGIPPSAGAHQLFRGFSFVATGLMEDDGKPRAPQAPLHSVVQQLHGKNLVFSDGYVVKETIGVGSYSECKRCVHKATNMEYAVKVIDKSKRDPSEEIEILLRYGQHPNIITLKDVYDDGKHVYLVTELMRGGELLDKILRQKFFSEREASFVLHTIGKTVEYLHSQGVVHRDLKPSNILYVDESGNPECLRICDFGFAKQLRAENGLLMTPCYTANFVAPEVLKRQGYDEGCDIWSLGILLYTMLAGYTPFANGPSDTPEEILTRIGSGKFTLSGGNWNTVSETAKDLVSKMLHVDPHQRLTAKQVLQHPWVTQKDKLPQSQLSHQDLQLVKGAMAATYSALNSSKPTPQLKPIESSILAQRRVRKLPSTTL
T4 sequence (Q96NX5 whole entry): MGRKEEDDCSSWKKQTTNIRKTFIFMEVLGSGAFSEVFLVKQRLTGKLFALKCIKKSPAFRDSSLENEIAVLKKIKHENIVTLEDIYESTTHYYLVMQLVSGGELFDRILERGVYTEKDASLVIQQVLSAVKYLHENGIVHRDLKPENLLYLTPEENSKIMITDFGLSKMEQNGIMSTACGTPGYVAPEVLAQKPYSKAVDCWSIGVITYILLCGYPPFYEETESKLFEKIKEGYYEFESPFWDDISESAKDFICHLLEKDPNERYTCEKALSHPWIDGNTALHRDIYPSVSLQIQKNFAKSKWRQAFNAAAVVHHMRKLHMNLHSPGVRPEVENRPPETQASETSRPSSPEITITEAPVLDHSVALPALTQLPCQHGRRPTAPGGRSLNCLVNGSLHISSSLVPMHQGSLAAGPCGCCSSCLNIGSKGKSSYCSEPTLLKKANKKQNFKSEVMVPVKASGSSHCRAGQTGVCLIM
T11 sequence (Q05655 whole entry): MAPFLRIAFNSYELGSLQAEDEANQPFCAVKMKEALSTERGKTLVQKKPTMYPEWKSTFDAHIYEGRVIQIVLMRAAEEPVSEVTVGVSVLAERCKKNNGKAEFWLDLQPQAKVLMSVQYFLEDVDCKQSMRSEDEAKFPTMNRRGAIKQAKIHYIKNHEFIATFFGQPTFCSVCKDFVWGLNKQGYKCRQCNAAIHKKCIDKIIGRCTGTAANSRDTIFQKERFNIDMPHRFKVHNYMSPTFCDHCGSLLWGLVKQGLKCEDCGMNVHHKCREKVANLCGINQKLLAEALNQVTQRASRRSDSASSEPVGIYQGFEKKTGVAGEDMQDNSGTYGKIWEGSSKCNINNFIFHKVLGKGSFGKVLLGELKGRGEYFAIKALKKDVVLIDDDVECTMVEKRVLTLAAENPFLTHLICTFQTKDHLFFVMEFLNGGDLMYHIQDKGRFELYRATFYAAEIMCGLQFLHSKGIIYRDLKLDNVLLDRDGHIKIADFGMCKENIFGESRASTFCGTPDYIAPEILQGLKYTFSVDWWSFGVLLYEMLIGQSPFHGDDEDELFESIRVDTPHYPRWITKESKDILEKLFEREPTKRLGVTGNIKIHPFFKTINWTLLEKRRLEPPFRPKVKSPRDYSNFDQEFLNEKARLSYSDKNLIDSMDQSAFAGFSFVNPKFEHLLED
T12 sequence (P30291 whole entry): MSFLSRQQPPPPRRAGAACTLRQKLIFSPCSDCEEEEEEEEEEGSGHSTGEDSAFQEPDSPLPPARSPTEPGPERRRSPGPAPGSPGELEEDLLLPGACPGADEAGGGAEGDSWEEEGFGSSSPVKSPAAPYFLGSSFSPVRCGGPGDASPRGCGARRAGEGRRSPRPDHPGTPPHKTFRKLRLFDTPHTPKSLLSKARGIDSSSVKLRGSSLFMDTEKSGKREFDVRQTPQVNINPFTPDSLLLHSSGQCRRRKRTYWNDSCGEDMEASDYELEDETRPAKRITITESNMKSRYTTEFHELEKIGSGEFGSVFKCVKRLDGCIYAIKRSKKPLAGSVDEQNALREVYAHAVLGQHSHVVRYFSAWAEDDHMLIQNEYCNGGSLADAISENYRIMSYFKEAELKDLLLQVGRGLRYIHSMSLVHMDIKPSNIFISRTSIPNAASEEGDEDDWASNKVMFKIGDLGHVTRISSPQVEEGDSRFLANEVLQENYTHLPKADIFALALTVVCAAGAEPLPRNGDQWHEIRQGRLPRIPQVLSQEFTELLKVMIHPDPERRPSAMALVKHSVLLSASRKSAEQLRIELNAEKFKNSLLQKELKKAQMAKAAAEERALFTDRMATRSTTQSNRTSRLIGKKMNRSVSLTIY

## COc1cc(OC)c(Cl)c(-c2ccc3c(NC(=O)c4ccc(N5CCNC(C)(C)C5)cc4)n[nH]c3n2)c1Cl [3D185]
CK2α2(h); 10 nM
  inhibition at 0.01 µM: 0%
CK2α2(h); 100 nM
  inhibition at 0.1 µM: 1%
CK2α2(h); 1000 nM
  inhibition at 1 µM: -6%
A-Raf(h); 10 nM
  inhibition at 0.01 µM: -7%
A-Raf(h); 100 nM
  inhibition at 0.1 µM: -7%
A-Raf(h); 1000 nM
  inhibition at 1 µM: -4%
Rsk1(h); 10 nM
  inhibition at 0.01 µM: -1%
Rsk1(h); 100 nM
  inhibition at 0.1 µM: -4%
Rsk1(h); 1000 nM
  inhibition at 1 µM: 24%
CaMKIγ(h); 10 nM
  inhibition at 0.01 µM: -1%
CaMKIγ(h); 100 nM
  inhibition at 0.1 µM: 3%
CaMKIγ(h); 1000 nM
  inhibition at 1 µM: 41%
Rsk1(r); 10 nM
  inhibition at 0.01 µM: -17%
Rsk1(r); 100 nM
  inhibition at 0.1 µM: 8%
Rsk1(r); 1000 nM
  inhibition at 1 µM: 30%
CDK2/cyclinA(h); 10 nM
  inhibition at 0.01 µM: 2%
CDK2/cyclinA(h); 100 nM
  inhibition at 0.1 µM: 7%
CDK2/cyclinA(h); 1000 nM
  inhibition at 1 µM: -3%
PKAcβ(h); 10 nM
  inhibition at 0.01 µM: -6%
PKAcβ(h); 100 nM
  inhibition at 0.1 µM: -11%
PKAcβ(h); 1000 nM
  inhibition at 1 µM: -11%
B-Raf(h); 10 nM
  inhibition at 0.01 µM: -4%
B-Raf(h); 100 nM
  inhibition at 0.1 µM: -5%
B-Raf(h); 1000 nM
  inhibition at 1 µM: 5%
RIPK1(h); 10 nM
  inhibition at 0.01 µM: 4%
RIPK1(h); 100 nM
  inhibition at 0.1 µM: 86%
RIPK1(h); 1000 nM
  inhibition at 1 µM: 99%
MSK2(h); 10 nM
  inhibition at 0.01 µM: 10%
MSK2(h); 100 nM
  inhibition at 0.1 µM: 25%
MSK2(h); 1000 nM
  inhibition at 1 µM: 49%
PKCδ(h); 10 nM
  inhibition at 0.01 µM: 5%
PKCδ(h); 100 nM
  inhibition at 0.1 µM: 4%
PKCδ(h); 1000 nM
  inhibition at 1 µM: -1%
Wee1(h); 10 nM
  inhibition at 0.01 µM: -5%
Wee1(h); 100 nM
  inhibition at 0.1 µM: -16%
Wee1(h); 1000 nM
  inhibition at 1 µM: 6%
PKBγ(h); 10 nM
  inhibition at 0.01 µM: 4%
PKBγ(h); 100 nM
  inhibition at 0.1 µM: 12%
PKBγ(h); 1000 nM
  inhibition at 1 µM: 20%
GCN2(h); 10 nM
  inhibition at 0.01 µM: 3%
GCN2(h); 100 nM
  inhibition at 0.1 µM: -12%
GCN2(h); 1000 nM
  inhibition at 1 µM: -49%
